Data: patent publication US9937235B2, “Lipidated peptides as anti-obesity agents” (USTAV ORGANICKE CHEMIE A BIOCHEMIE AKADEMIE VED CR, V.V.I, priority 2012, dated 2018)
Where a SMILES comes first, the peptide text is derived from it. [ ]: non-standard residue; d: D form. The star is where a group is joined. Palmitoyl = CCCCCCCCCCCCCCCC(=O)*; Myristoyl = CCCCCCCCCCCCCC(=O)*; Nle = CCCC[C@H](N)C(=O)O; Dap = NC[C@H](N)C(=O)O

How the values were obtained:
fasted C57BL/6 mice [1] = assay: Food intake in fasted mice after ICV administration; type: in vivo; conditions: 4 nmol/mouse; for % control: food intake vs saline
Method in brief: (§1)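 Male C57BL/6 mice, food-deprived 17 h, received saline, PrRP or lipidated analogs either SC at 1-10 mg/kg or ICV into the third ventricle at 4 nmol/mouse.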

[2] = target: T1, rat PrRP receptor (GPR10) in RC-4B/C cells (Rattus norvegicus, UniProt Q64121); assay: Competitive binding to rat pituitary RC-4B/C cells; conditions: ^125I-rat PrRP31, RC-4B/C cells
T1 construct: host or cells: RC-4B/C rat pituitary cell line
T1 sequence (Q64121 1-370): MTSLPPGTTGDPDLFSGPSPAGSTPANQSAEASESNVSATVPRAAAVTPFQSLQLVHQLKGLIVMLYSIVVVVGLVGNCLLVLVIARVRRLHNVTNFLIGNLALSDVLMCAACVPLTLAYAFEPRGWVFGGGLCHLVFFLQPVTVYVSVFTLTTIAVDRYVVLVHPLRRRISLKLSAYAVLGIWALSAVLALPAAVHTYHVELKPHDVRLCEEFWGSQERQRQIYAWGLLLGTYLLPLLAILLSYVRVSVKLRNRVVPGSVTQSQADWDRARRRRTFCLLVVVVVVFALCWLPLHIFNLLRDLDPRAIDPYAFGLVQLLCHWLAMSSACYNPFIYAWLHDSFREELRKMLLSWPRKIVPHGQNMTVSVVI

fasted C57BL/6 mice [3] = assay: Food intake in fasted mice after SC administration; type: in vivo, mouse; conditions: for food intake in fasted mice (in words): SC (peripheral) administration; for food intake / % control: SC administration; for % control: food intake vs saline
Method in brief: as §1

CCCCCCCCCCCCCCCC(=O)NC[C@H](N)C(=O)N[C@@H](CCCNC(=N)N)C(=O)N[C@@H](C)C(=O)N[C@@H](Cc1c[nH]cn1)C(=O)N[C@@H](CCC(N)=O)C(=O)N[C@@H](Cc1c[nH]cn1)C(=O)N[C@@H](CO)C(=O)N[C@@H](CCCC)C(=O)N[C@@H](CCC(=O)O)C(=O)N[C@H](C(=O)N[C@@H](CCCNC(=N)N)C(=O)N[C@H](C(=O)N1CCC[C@H]1C(=O)N[C@@H](CC(=O)O)C(=O)N[C@H](C(=O)N[C@@H](CC(N)=O)C(=O)N1CCC[C@H]1C(=O)N[C@@H](C)C(=O)N[C@@H](Cc1c[nH]c2ccccc12)C(=O)N[C@@H](Cc1ccc(O)cc1)C(=O)N[C@H](C(=O)NCC(=O)N[C@@H](CCCNC(=N)N)C(=O)NCC(=O)N[C@H](C(=O)N[C@@H](CCCNC(=N)N)C(=O)N1CCC[C@H]1C(=O)N[C@H](C(=O)NCC(=O)N[C@@H](CCCNC(=N)N)C(=O)N[C@@H](Cc1ccccc1)C(N)=O)C(C)C)[C@@H](C)CC)[C@@H](C)O)[C@@H](C)CC)[C@@H](C)O)[C@@H](C)O [Analog 6] (H-[Dap](Palmitoyl)RAHQHS[Nle]ETRTPDINPAWYTGRGIRPVGRF-NH2)
food intake (fasted C57BL/6 mice [1]; 45 minutes): 0.38 g | % control (fasted C57BL/6 mice [1]; 45 minutes): 71% | food intake (fasted C57BL/6 mice [1]; 300 minutes): 1.3 g | % control (fasted C57BL/6 mice [1]; 300 minutes): 100% | % of PrRP31 binding [2]: 1072% | food intake in fasted mice (in words) (fasted C57BL/6 mice [3]): significantly decreased food intake | food intake (fasted C57BL/6 mice [3]; 45 minutes, 5 mg/kg): 0 g | % control (fasted C57BL/6 mice [3]; 45 minutes, 5 mg/kg): 0% | food intake (fasted C57BL/6 mice [3]; 300 minutes, 5 mg/kg): 0.14 g | % control (fasted C57BL/6 mice [3]; 300 minutes, 5 mg/kg): 14%

CCCCCCCCCCCCCC(=O)NC[C@H](N)C(=O)N[C@@H](CCCNC(=N)N)C(=O)N[C@@H](C)C(=O)N[C@@H](Cc1c[nH]cn1)C(=O)N[C@@H](CCC(N)=O)C(=O)N[C@@H](Cc1c[nH]cn1)C(=O)N[C@@H](CO)C(=O)N[C@@H](CCCC)C(=O)N[C@@H](CCC(=O)O)C(=O)N[C@H](C(=O)N[C@@H](CCCNC(=N)N)C(=O)N[C@H](C(=O)N1CCC[C@H]1C(=O)N[C@@H](CC(=O)O)C(=O)N[C@H](C(=O)N[C@@H](CC(N)=O)C(=O)N1CCC[C@H]1C(=O)N[C@@H](C)C(=O)N[C@@H](Cc1c[nH]c2ccccc12)C(=O)N[C@@H](Cc1ccc(O)cc1)C(=O)N[C@H](C(=O)NCC(=O)N[C@@H](CCCNC(=N)N)C(=O)NCC(=O)N[C@H](C(=O)N[C@@H](CCCNC(=N)N)C(=O)N1CCC[C@H]1C(=O)N[C@H](C(=O)NCC(=O)N[C@@H](CCCNC(=N)N)C(=O)N[C@@H](Cc1ccccc1)C(N)=O)C(C)C)[C@@H](C)CC)[C@@H](C)O)[C@@H](C)CC)[C@@H](C)O)[C@@H](C)O [Analog 5] (H-[Dap](Myristoyl)RAHQHS[Nle]ETRTPDINPAWYTGRGIRPVGRF-NH2)
food intake (fasted C57BL/6 mice [1]; 45 minutes): 0.35 g | % control (fasted C57BL/6 mice [1]; 45 minutes): 62% | food intake (fasted C57BL/6 mice [1]; 300 minutes): 0.96 g | % control (fasted C57BL/6 mice [1]; 300 minutes): 73% | % of PrRP31 binding [2]: 601% | food intake in fasted mice (in words) (fasted C57BL/6 mice [3]): significantly decreased food intake | dose dependence of the lowering of food intake (fasted C57BL/6 mice [3]; SC administration, 1, 2, 5 and 10 mg/kg, FIG. 5 and 6): dose dependent | food intake (fasted C57BL/6 mice [3]; 45 minutes, 10 mg/kg): 0.05 g | % control (fasted C57BL/6 mice [3]; 45 minutes, 10 mg/kg): 25% | food intake (fasted C57BL/6 mice [3]; 300 minutes, 10 mg/kg): 0.18 g | % control (fasted C57BL/6 mice [3]; 300 minutes, 10 mg/kg): 21%
